Among the data in ChEMBL document CHEMBL2424555, “Discovery of novel 4-anilinoquinazoline derivatives as potent inhibitors of epidermal growth factor receptor with antitumor activity” (Bioorg Med Chem, 2013) are IC50 and Activity values, retold here.

The structures appear in SMILES notation. Calls of active or inactive are those of the source. The calls are words filed in the database; no cut-off is given here.

For assay [1], the system named is HepG2. The assay is described as follows: Antiproliferative activity against human HepG2 cells after 48 hrs by MTT assay. The note with it: HepG2, 48 h. The class given is functional, cell-based.
The subject of assay [2] is A549. The assay is described as follows: Antiproliferative activity against human A549 cells after 48 hrs by MTT assay. Format: functional, cell-based. The conditions noted are these: A549, 48 h. For orientation: Tetrazolium assays rely on reduction of a dye to a coloured formazan, in cell work by metabolically active cells.
The target in assay [3] is Epidermal growth factor receptor (Homo sapiens, UniProt P00533). The assay is described as follows: Inhibition of recombinant EGFR kinase cytoplasmic domain (unknown origin) expressed in baculovirus expression vector-infected insect sf9 cells assessed as level of autophosphorylation after 10 mins by DELFIA/time-resolved fluorometry.
Assay [4] has as its system A549. The assay is described as follows: Induction of apoptosis in human A549 cells assessed as nuclear condensation at 5 to 20 uM after 24 hrs by Hoechst 33258 staining-based fluorescence microscopy relative to control. Format: functional, cell-based.
Assay [5] concerns A549. The assay is described as follows: Induction of apoptosis in human A549 cells assessed as nuclear convolution and budding off into several fragments after 24 hrs by Hoechst 33258 staining-based fluorescence microscopy relative to control. The class given is functional, cell-based.
Assay [6] concerns A549. The assay is described as follows: Induction of apoptosis in human A549 cells assessed as nuclear fragmentation after 24 hrs by Hoechst 33258 staining-based fluorescence microscopy relative to control. Format: functional, cell-based.
In assay [7] the test system is A549. The assay is described as follows: Induction of apoptosis in human A549 cells assessed as nuclear condensation after 24 hrs by Hoechst 33258 staining-based fluorescence microscopy relative to control. The class given is functional, cell-based.
Assay [8] concerns A549. The assay is described as follows: Induction of apoptosis in human A549 cells assessed as nuclear fragmentation at 5 to 20 uM after 24 hrs by Hoechst 33258 staining-based fluorescence microscopy relative to control. Format: functional, cell-based.
Assay [9] relates to A549. The assay is described as follows: Induction of apoptosis in human A549 cells assessed as nuclear convolution and budding off into several fragments at 5 to 20 uM after 24 hrs by Hoechst 33258 staining-based fluorescence microscopy relative to control. Format: functional, cell-based.

Epidermal growth factor receptor, sequence (P00533 whole entry, the tested form may be a part): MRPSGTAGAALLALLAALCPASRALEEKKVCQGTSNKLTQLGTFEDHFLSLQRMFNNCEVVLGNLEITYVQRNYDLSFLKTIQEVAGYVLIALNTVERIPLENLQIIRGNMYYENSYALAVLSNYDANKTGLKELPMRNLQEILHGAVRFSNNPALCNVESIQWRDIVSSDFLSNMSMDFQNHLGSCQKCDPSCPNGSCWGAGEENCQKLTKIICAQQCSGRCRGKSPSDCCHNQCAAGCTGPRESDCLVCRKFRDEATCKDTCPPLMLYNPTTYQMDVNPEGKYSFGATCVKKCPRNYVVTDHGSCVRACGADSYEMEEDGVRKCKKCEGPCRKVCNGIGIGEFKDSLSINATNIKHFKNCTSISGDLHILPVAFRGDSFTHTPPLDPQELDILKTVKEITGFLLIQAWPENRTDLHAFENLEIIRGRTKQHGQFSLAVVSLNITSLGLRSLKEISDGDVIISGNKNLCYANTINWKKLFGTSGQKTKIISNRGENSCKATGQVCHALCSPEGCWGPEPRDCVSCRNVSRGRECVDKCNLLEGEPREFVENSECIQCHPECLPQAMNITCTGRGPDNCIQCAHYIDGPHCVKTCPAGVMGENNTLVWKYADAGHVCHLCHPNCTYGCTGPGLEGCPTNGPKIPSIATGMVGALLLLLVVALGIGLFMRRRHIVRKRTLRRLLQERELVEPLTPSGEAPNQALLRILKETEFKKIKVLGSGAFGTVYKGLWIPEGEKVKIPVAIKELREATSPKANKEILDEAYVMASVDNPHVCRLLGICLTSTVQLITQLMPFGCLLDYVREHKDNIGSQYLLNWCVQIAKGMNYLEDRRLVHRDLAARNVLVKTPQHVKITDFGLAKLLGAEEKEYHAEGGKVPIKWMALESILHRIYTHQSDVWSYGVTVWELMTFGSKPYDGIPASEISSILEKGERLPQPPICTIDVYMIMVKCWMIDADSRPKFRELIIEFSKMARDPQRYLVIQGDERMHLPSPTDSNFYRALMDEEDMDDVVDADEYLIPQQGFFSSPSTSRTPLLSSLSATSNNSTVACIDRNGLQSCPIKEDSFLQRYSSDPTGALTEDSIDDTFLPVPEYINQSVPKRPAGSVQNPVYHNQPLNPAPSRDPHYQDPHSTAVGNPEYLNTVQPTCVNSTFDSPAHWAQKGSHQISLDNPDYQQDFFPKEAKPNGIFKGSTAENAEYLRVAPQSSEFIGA

Consider `O=C(/C=C/c1c[nH]c2ccccc12)Nc1ccc2ncnc(Nc3cccc(Cl)c3)c2c1`, for which the IC50 in assay [1] worked out at 7.02 µM; in assay [2], 3.67 µM.
The corresponding values for `Cc1cccc(/C=C/C(=O)Nc2ccc3ncnc(Nc4cccc(Cl)c4)c3c2)n1` are 4.82 µM and 2.16 µM.
As for `CSCCCNc1ccc2ncnc(Nc3cccc(Cl)c3)c2c1`, the IC50 in assay [1] was 8.92 µM; in assay [2], 3.82 µM; in assay [3], 5.1 µM.
For the compound `O=C(/C=C/c1cccc(Br)n1)Nc1ccc2ncnc(Nc3cccc(Cl)c3)c2c1`, the figures for the IC50 in assay [1] and in [2] were 10.7 µM and 4.16 µM, respectively.
Regarding `Cc1cccc(CNc2ccc3ncnc(Nc4cccc(Cl)c4)c3c2)n1`, the IC50 is 3.63 µM in assay [1] and 1.06 µM in assay [2].
Regarding `Clc1cccc(Nc2ncnc3ccc(NCc4ccc(Br)s4)cc23)c1`, the IC50 was 3.11 µM in assay [1], 0.82 µM in assay [2] and 1.5 µM in assay [3]. In addition, the outcome in assay [4], in [8] and in assay [9] was Active. The Activity result in [5], in assay [6] and in assay [7] was “Dose-dependent effect” in each case.
In the case of `Clc1cccc(Nc2ncnc3ccc(NCc4ncc5ccccc5n4)cc23)c1`, the results for the IC50 in [1] and in assay [2] were 5.65 µM and 1.71 µM, respectively.
As for `O=C(/C=C/c1cccnc1Cl)Nc1ccc2ncnc(Nc3cccc(Cl)c3)c2c1`, the IC50 in assay [1] came out at 4.42 µM; in assay [2] it was 2.92 µM; in assay [3], 3.6 µM.
Turning to `Clc1cccc(Nc2ncnc3ccc(NCc4c[nH]c5ccccc45)cc23)c1`, the half-inhibitory concentration (IC50) in assay [1] came out at 5.26 µM; in assay [2], 2.33 µM.
For `CCCCNc1ccc2ncnc(Nc3cccc(Cl)c3)c2c1`, in that order: 7.85 µM and 4.01 µM.
For the compound `Clc1cccc(Nc2ncnc3ccc(NCc4cccc(Br)n4)cc23)c1`, the figures for the IC50 in assay [1], in [2] and in [3] were 3.87 µM, 2.95 µM and 4.1 µM, respectively.
Take `Clc1cccc(Nc2ncnc3ccc(NCc4cccnc4)cc23)c1`: the IC50 in [1] came to 4.14 µM; in [2], 2.67 µM.
As to `O=C(/C=C/c1cccs1)Nc1ccc2ncnc(Nc3cccc(Cl)c3)c2c1`, the IC50 is 10.4 µM in [1], 9.31 µM in [2] and 8.8 µM in assay [3].
The corresponding values for `O=C(/C=C/c1ccc(Br)s1)Nc1ccc2ncnc(Nc3cccc(Cl)c3)c2c1` are 8.85 µM, 1.58 µM and 2.4 µM.
For `Clc1cccc(Nc2ncnc3ccc(NCc4cccs4)cc23)c1`, in that order: 3.58 µM, 2.08 µM and 3.4 µM.
Turning to `O=C(/C=C/c1ncc2ccccc2n1)Nc1ccc2ncnc(Nc3cccc(Cl)c3)c2c1`, the IC50 came out at 7.79 µM in assay [1] and 3.35 µM in assay [2].
For the compound `O=C(/C=C/c1cccnc1)Nc1ccc2ncnc(Nc3cccc(Cl)c3)c2c1`, the IC50 in assay [1] is 9.12 µM; in assay [2] it was 4.32 µM; in [3] it was 4.7 µM.

One may read the IC50 as the point on the concentration scale where inhibition reaches its midpoint.
